Results: publication PMC8971402, “Author Correction: Effects of route of administration on oxytocin-induced changes in regional cerebral blood flow in humans” (Nature Communications, 2022)
Several values for one entry are separate records, joined by “and”; a condition that tells them apart may be missing. Equal entries are not always repeated.

What was measured:
[1] = in vivo
Excerpt: We present a summary of three
(§1) parameters describing the pharmacokinetics of each treatment administration method. We
(§2) present the maximum plasmatic concentration achieved after dosing (Cmax), the area under the
(§3) curve (AUC) reflecting the magnitude of the variations of plasmatic oxytocin post-dosing and
(§4) the absolute bioavailability of oxytocin absorbed to the plasma, calculated as the dose-corrected
(§5) AUC of each intranasal administration divided by the dose-corrected AUC of the intravenous
(§6) administration. Data are presented as mean (1 standard error of the mean).

[2] = system: heart rate and heart rate variability; design: species or system humans; settings: in vivo, iv
Method: Supplementary Table 4 – Percentage of observations satisfying quality control criteria for
the pulse plethysmography analysis. Following current recommendations for heart rate data
processing and analysis, if more than 5% of the beats required correction, then we decided to
exclude these periods of observation. In some rare cases where artefacts could not be corrected,
we only included the data if at least 5 min of acquisition free of artefacts could be analysed. In
this table, we present the percentage of total data available satisfying our quality control criteria
for each treatment method of administration and time-interval, so the reader can appreciate the
amount of data effectively used in the final analysis.
Time from last drug administration offset (minutes)
We determined time-interval, treatment, and treatment
x time-interval effects on a set of time domain (heart-rate (HR) and the root mean square of the successive differences (RMSSD), frequency domain
(low (LF) and high (HF) frequencies spectral powers and high/low frequency spectral power ratio (HF/LF)) and non-linear (Approximate entropy
(ApEn), the SD1 and SD2 lines from the Poincare Plot and the detrended fluctuation scaling exponents DFAα1 and DFAα2) analysis measures of
heart rate variability. We used a repeated measures two-way analysis of variance, using subjects, treatment and time as factors, and the Greenhouse- […]

[3] = Pharmacokinetics of plasmatic oxytocin after intravenous, nasal spray or nebulizer administration; settings: for Concentration (plasma oxytocin): Condition IV, individual participants (Fig6A source data); for Bioavailability: individual participants, corrected source data (Fig6C)
Excerpt: We present a summary of three
as §1, §2, §3, §4, §5, §6

Question: Which results are given for `CC[C@H](C)[C@@H]1NC(=O)[C@H](Cc2ccc(O)cc2)NC(=O)[C@@H](N)CSSC[C@@H](C(=O)N2CCC[C@H]2C(=O)N[C@@H](CC(C)C)C(=O)NCC(N)=O)NC(=O)[C@H](CC(N)=O)NC(=O)[C@H](CCC(N)=O)NC1=O` [oxytocin]?
Answer: AUC over the observation interval, intravenous OT infusion vs intranasal methods [1]: significantly higher AUC; Effect on heart rate and heart rate variability [2]: did not affect heart rate or heart rate variability; Concentration (plasma oxytocin) ([3]; Sample 2, in pg/mL): 65.12 and 59.67 and 47.11; Concentration (plasma oxytocin) ([3]; Sample 3): 0.0681 ng/mL; Concentration (plasma oxytocin) ([3]; Sample 4): 0.0539 ng/mL; Concentration (plasma oxytocin) ([3]; Sample 4, in pg/mL): 30.93; Concentration (plasma oxytocin) ([3]; Sample 6, in pg/mL): 12.86 and 20.71; Concentration (plasma oxytocin) ([3]; Sample 7): 0.00723 ng/mL and 0.00461 ng/mL; Concentration (plasma oxytocin) ([3]; Sample 8): 0.00377 ng/mL; Bioavailability ([3]; Nebuliser): 31.90% and 10.30% and 3.30% and 7.94% and 12.67% and 62.94% and 5.39% and 6.53% and 8.236% and 4.17% and 6.07% and 5.20% and 6.82% and 10.22% and 6.95% and 32.80%; Bioavailability ([3]; Spray): 6.85% and 11.96% and 5.38% and 16.81% and 5.32% and 6.16% and 8.93% and 4.67% and 8.4323% and 12.50% and 14.77% and 6.29% and 7.56% and 11.34% and 5.36% and 37.05%; Absolute bioavailability of OT absorbed to the plasma, standard nasal spray vs PARI SINUS nebulizer ([3]; corrected AUCs, paired t-test p = 0.438): no significant differences; Cmax ([3]; human, in vivo, iv, SEM): 0.0643 ng/mL
